Results published in patent EP2155158B1, “PERSONAL LUBRICANT COMPOSITION” (LRC Products Limited, priority 2007, dated 2008).
Read-outs that look alike come from different tables or passages of the source.

What was measured:
[1] = Cooling strength of coolants relative to menthol; details: menthol = 100
From the text: N-ethyl-p-menthane-3-carboxamide has, to date, primarily been used in oral, medicinal and confectionary products, such as breath freshening chewing gums. […]

[2] = Volatility compared with menthol; assay type: physicochemical
[3] = Crystallisation / clouding at low temperatures; assay type: physicochemical

Row | Molecule | Cooling strength relative to menthol [1] | other results
1 | CNC(=O)C(C)(C(C)C)C(C)C [WS-23] | 75 | –
2 | Menthone lactate | 41 | –
3 | CC1CCC(C(C)C)C(OC(=O)C(C)O)C1 (stereo not shown) [Menthyl lactate] | 43 | –
4 | CCNC(=O)C1CC(C)CCC1C(C)C (stereo not shown) [WS-3, N-ethyl-p-menthane-3-carboxamide] | 150 | volatility [2]: lower volatility than menthol; loss of coolant on storage (reduction in the level of retained coolant) (in personal lubricant formulation, storage for 3 months at 40°C): no loss; crystallisation at low temperatures [3]: does not crystallise at low temperatures
5 | CC1CCC(C(C)C)C(O)C1 (stereo not shown) [Menthol] | 100 | loss of coolant on storage (reduction in the level of retained coolant) (personal lubricant formulation, 2190 h): about 50%
6 | C=C(C)C1CCC(C)CC1O (stereo not shown) [Isopulegol, 2-isopropenyl-5-methyl-cyclohexanol] | 25 | –
